The target of experiment [1] is ATM (Homo sapiens (Human), UniProt Q13315). Kind of experiment: ATM in Cell Western Assay (pKAP1 in etoposide-treated MCF-7 cells). The format is cell-based. The gist of the method: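 Cells received compounds in a 10-dose, 3-fold series from a 1 μM final top concentration, then 100 μM etoposide, for 1 hr at 37° C. They were then fixed with paraformaldehyde and permeabilized with 0.1% Triton X-100. After immunostaining, plates were scanned on an infrared imager.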

In experiment [2] the target is DNA-PK (Homo sapiens (Human), UniProt P78527). Kind of experiment: DNA-PK Enzyme-Linked Immunosorbent Assay (phosphorylation of GST-p53 (1-101) peptide). The following applies: ELISA. The format is biochemical. The procedure:
Assay of Compounds ATM and DNA-PK Inhibition
remove wash solution, turn plate upside down onto a thin paper towel and centrifuge at 1000 rpm for 1 min to absorb all wash buffer. Clean the bottom of plate with moist lint free paper. Scan plate immediately using ODYSSEY CLx (LI-COR) for the best results. DNA-PK Enzyme-Linked Immunosorbent Assay:
On day one, coat 96-well plate (ThermoFisher. Cat #: 442404) with GST-p53 (1-101) peptide (purified by Pharmaron, BCS department) by diluting 3 μg of GST-p53 each well with 0.1 M Na2CO3/NaHCO3, pH 9.6. Incubate the plate overnight at 4° C. The second day, remove coating buffer, wash 2× with PBST (1×PBS containing 0.1% Tween-20). Then add DNA-PK enzyme solution (Invitrogen, #PR9107A; the final DNA-PK concentration is 0.1 μg/mL), series dilution compounds (the final top concentration is 100 nM, 3 fold series dilution, with total 10 doses) and ATP solution (the final ATP concentration is 20 μM) to the 96-well plate. Incubate the plate at 25° C. for 1 hour. Then wash 3× with PBST (1×PBS containing 0.1% Tween-20). Block the plate with PBST+ 1% BSA at 4° C. overnight. The third day, wash 4× with PBST (1×PBS containing 0.1% Tween-20). Then add Phospho-p53 primary antibody (cell signaling Technology, #9286, Phospho-p53 (Ser15) (16G8) Mouse mAb) (1/1000) to each well. Seal with plate and incubate the plate for 1 h at 37° C. Wash 4× with PBST (1×PBS containing 0.1% Tween-20), add 100 μL of HRP-linked secondary antibody (Cell signaling Technology, #7076, Anti-mouse IgG, HRP-linked Antibody) (1/1000) to each well. Seal with tape and incubate the plate for 30 min at 37° C. Wash 4× with PBST (1×PBS containing 0.1% Tween-20), add 100 μL of TMB (Cell signaling Technology, #7004) substrate to each well. Seal with tape and incubate the plate for 10 min at 37° C. Then add 100 μL of Stop solution (Cell signaling Technology, #7002) to each well. Read the plate at 450 nm to detect absorption.
(In an ELISA, binding on a coated surface is turned into a signal by an enzyme label.)

The mark [3] stands for this setting: pKAP1 in etoposide-treated MCF-7 cells.
Setting [4] is: MCF-7 cells, etoposide 100 μM, 1 hr, pKAP1 readout.

Counter-ions that a name gives are not always drawn.

ATM, sequence (Q13315 whole entry): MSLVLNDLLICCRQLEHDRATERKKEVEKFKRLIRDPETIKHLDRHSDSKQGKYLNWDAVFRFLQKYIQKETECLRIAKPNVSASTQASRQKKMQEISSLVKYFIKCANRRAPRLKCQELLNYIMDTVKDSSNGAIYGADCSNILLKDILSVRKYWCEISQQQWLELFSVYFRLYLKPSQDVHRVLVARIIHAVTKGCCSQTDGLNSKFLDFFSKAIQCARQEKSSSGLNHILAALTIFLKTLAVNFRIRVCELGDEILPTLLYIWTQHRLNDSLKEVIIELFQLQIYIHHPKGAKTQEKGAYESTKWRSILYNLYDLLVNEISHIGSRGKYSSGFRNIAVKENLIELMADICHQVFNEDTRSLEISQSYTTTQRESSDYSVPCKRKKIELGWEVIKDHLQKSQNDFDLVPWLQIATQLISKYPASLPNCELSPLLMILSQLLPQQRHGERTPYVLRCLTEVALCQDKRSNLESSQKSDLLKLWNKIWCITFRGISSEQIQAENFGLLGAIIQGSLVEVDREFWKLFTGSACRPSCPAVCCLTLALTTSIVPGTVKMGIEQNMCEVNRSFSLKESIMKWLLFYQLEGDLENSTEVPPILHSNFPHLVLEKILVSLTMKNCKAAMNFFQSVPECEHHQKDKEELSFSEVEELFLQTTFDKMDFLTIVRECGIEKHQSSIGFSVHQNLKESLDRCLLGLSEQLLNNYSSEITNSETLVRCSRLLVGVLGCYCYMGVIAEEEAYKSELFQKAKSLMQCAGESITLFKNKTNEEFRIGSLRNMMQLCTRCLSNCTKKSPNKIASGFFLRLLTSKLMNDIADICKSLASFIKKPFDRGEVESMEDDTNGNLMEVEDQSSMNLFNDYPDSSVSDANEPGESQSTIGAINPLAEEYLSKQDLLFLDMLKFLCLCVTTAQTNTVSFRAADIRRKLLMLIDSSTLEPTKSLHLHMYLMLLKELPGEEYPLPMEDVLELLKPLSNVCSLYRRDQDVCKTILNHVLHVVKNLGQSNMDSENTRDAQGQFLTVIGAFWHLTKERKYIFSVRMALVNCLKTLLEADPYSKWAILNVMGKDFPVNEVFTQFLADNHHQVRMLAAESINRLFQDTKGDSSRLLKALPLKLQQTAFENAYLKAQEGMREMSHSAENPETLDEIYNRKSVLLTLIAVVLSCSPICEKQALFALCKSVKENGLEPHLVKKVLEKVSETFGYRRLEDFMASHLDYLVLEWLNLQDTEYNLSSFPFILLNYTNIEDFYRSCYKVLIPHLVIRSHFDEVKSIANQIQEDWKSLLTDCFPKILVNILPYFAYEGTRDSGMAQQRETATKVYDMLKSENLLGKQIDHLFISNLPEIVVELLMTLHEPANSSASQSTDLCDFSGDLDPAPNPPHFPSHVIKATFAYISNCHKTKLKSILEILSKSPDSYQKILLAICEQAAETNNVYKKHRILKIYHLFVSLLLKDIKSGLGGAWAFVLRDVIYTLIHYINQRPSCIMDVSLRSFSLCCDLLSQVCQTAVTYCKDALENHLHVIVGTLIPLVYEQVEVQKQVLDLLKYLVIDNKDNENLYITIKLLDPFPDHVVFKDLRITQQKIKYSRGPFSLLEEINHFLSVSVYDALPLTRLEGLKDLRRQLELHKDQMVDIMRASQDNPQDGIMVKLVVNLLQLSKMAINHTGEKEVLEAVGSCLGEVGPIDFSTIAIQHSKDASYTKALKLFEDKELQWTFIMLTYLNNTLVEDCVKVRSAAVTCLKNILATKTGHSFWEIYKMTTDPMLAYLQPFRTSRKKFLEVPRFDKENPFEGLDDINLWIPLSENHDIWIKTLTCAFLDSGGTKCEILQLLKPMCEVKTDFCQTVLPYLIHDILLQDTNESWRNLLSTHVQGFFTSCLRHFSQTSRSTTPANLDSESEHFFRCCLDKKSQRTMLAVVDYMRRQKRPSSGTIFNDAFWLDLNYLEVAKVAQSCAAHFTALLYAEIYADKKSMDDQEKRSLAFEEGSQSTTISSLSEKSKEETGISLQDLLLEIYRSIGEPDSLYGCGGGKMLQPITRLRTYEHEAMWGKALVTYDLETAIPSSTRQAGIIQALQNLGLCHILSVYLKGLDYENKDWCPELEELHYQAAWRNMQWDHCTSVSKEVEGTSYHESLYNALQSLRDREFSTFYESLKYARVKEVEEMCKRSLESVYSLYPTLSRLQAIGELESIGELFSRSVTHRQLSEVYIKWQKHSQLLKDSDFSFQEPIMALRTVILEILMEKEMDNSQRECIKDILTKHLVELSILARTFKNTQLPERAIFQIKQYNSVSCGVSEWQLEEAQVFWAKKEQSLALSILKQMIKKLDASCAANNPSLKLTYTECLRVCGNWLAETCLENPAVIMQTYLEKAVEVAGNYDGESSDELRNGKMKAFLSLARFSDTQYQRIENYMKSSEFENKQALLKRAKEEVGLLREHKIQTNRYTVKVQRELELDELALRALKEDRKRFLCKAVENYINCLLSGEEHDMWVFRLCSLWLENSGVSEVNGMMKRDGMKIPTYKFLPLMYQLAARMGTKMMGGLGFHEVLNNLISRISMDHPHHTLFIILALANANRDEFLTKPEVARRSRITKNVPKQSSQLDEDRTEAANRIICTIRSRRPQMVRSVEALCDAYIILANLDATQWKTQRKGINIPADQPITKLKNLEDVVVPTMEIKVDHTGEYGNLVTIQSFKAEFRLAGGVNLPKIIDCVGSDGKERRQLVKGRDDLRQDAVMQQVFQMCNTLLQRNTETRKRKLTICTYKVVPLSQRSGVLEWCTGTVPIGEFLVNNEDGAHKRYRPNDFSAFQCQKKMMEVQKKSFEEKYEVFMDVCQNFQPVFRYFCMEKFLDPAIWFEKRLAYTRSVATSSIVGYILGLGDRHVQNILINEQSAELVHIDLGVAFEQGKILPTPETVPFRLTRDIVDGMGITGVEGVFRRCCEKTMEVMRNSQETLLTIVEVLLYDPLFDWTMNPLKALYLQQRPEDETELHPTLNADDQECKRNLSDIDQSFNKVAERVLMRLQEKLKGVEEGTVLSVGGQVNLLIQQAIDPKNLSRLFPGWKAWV

A word on the IC50: it is the concentration that gives 50% inhibition. Higher therefore signals weaker potency in that assay. Turning to `CN1C(=O)C2(CCC2)c2c1cnc1ccc(-c3cnc(N4CCC(N(C)C)C4)c(NS(C)(=O)=O)c3)cc21` (racemic) [Example 351, (rac)-N-(2-(3-(Dimethylamino)pyrrolidin-1-yl)-5-(3′-methyl-2′-oxo-2′,3′-dihydrospiro[cyclobutane-1,1′-pyrrolo[2,3-c]quinolin]-8′-yl)pyridin-3-yl)methanesulfonamide], the IC50 in experiment [1] (setting [3]) and in experiment [2] (20 μM ATP) was 1 to 100 nM in each case.
In the case of `CN1C(=O)C2(CCC2)c2c1cnc1ccc(-c3cnc(N4CCC(N5CCCCC5)C4)c(NS(C)(=O)=O)c3)cc21` (racemic) [Example 352, (rac)-N-(5-(3′-Methyl-2′-oxo-2′,3′-dihydrospiro[cyclobulane-1,1′-pyrrolo[2,3-c]quinolin]-8′-yl)-2-(3-(piperidin-1-yl)pyrrolidin-1-yl)pyridin-3-yl)methanesulfonamide hydrochloride], the IC50 in experiment [1] (setting [3]) and in experiment [2] (20 μM ATP) was 1 to 100 nM each time.
On to `CN(C)CCCOc1ccc(-c2ccc3ncc4c(c3c2)C2(CC2)C(=O)N4C)cn1` [Example 1, 8′-(6-(3-(Dimethylamino)propoxy)pyridin-3-yl)-3′-methylspiro [cyclopropane-1,1′-pyrrolo[2,3-c]quinolin]-2′(3′-H)-one], for which the IC50 in experiment [1] (setting [4]) and in experiment [2] (ATP 20 μM) was 1 to 100 nM in each case.
Turning to `CN(C)CCCOc1ncc(-c2ccc3ncc4c(c3c2)C2(CCCC2)C(=O)N4C)cc1NS(=O)(=O)c1ccccc1` [Example 2, N-(2-(3-(Dimethylamino)propoxy)-5-(3′-methyl-2′-oxo-2′,3′-dihydrospiro[cyelopentane-1,1′-pyrrolo[2,3-c]quinolin]-8′-yl)pyridin-3-yl) benzenesulfonamide], the IC50 in experiment [1] (setting [4]) and in experiment [2] (ATP 20 μM) was 1 to 100 nM throughout.
Turning to `CN(C)CCCOc1ncc(-c2ccc3ncc4c(c3c2)C2(CCCCC2)C(=O)N4C)cc1NS(=O)(=O)c1ccccc1` [Example 3, N-(2-(3-(Dimethylamino)propoxy)-5-(3′-methyl-2′-oxo-2′,3′-dihydrospiro[cyclohexane-1,1′-pyrrolo[2,3-c]quinolin]-8′-yl)pyridin-3-yl) benzenesulfonamide], the IC50 in experiment [1] (setting [4]) and in experiment [2] (ATP 20 μM) was 1 to 100 nM each time.
For the compound `CN(C)CCCOc1ncc(-c2ccc3ncc4c(c3c2)C2(CC2)C(=O)N4C)cc1NS(=O)(=O)c1ccccc1` [Example 4, N-(2-(3-(Dimethylamino)propoxy)-5-(3′-methyl-2′-oxo-2′,3′-dihydrospiro[cyclopropane-1,1′-pyrrolo[2,3-c]quinolin]-8′-yl)pyridin-3-yl)benzenesulfonamide], the half-maximal inhibitory concentration (IC50) in experiment [1] (setting [4]) and in experiment [2] (ATP 20 μM) was < 0.5 nM throughout.
On to `CN(C)CCCOc1ncc(-c2ccc3ncc4c(c3c2)C2(CCC2)C(=O)N4C)cc1NS(=O)(=O)c1ccccc1` [Example 5, N-(2-(3-(Dimethylamino)propoxy)-5-(3′-methyl-2′-oxo-2′,3′-dihydrospiro [cyclobutane-1,1′-pyrrolo [2,3-c]quinolin]-8′-yl)pyridin-3-yl)benzenesulfonamide], for which the IC50 is 1 to 100 nM in experiment [1] (setting [4]) and < 0.5 nM in experiment [2] (ATP 20 μM).
In the case of `CN(C)CCOc1ncc(-c2ccc3ncc4c(c3c2)C2(CCCC2)C(=O)N4C)cc1NS(=O)(=O)c1ccccc1` [Example 6, N-(2-(2-(Dimethylamino)ethoxy)-5-(3′-methyl-2′-oxo-2′,3′-dihydrospiro[cyclopentane-1,1′-pyrrolo[2,3-c]quinolin]-8′-yl)pyridin-3-yl)benzenesulfonamide], the half-maximal inhibitory concentration (IC50) in experiment [1] (setting [4]) fell in the range of 1 to 100 nM; in experiment [2] (ATP 20 μM), 0.5 to 1 nM.
The like results for `COc1ncc(-c2ccc3ncc4c(c3c2)C2(COC2)C(=O)N4C)cc1NS(=O)(=O)c1ccccc1` [Example 8, N-(2-Methoxy-5-(3′-methyl-2′-oxo-2′,3′-dihydrospiro[oxetane-3,1′-pyrrolo[2,3-c]quinolin]-8′-yl)pyridin-3-yl)benzenesulfonamide] were, in that order, 1 to 100 nM and < 0.5 nM.
The like results for `COc1ncc(-c2ccc3ncc4c(c3c2)C2(CC2)C(=O)N4C)cc1NS(=O)(=O)c1cccc(Cl)c1` [Example 9, 3-Chloro-N-(2-methoxy-5-(3′-methyl-2′-oxo-2′,3′-dihydrospiro [cyclopropane-1,1′-pyrrolo[2,3-c]quinolin]-8′-yl)pyridin-3-yl)benzenesulfonamide] were, in that order, 1 to 100 nM and < 0.5 nM.
The like results for `CN(C)c1ncc(-c2ccc3ncc4c(c3c2)C2(CCC2)C(=O)N4C)cc1NS(=O)(=O)c1ccccc1` [Example 10, N-(2-(Dimethylamino)-5-(3′-methyl-2′-oxo-2′,3′-dihydrospiro[cyclobutane-1,1′-pyrrolo[2,3-c]quinolin]-8′-yl)pyridin-3-yl)benzenesulfonamide] were, in that order, 1 to 100 nM and < 0.5 nM.
For the compound `COc1ncc(-c2ccc3ncc4c(c3c2)C2(CC2)C(=O)N4C)cc1NS(=O)(=O)c1ccc([N+](=O)[O-])cc1` [Example 12, N-(2-Methoxy-5-(3′-methyl-2′-oxo-2′,3′-dihydrospiro [cyclopropane-1,1′-pyrrolo[2,3-c]quinolin]-8′-yl)pyridin-3-yl)-4-nitrobenzenesulfonamide], the IC50 was 1 to 100 nM in experiment [1] (setting [4]) and < 0.5 nM in experiment [2] (ATP 20 μM).
The like results for `COc1ncc(-c2ccc3ncc4c(c3c2)C2(CC2)C(=O)N4C)cc1NS(=O)(=O)c1cccc(C(C)=O)c1` [Example 13, 3-Acetyl-N-(2-methoxy-5-(3′-methyl-2′-oxo-2′,3′-dihydrospiro [cyclopropane-1,1′-pyrrolo[2,3-c]quinolin]-8′-yl)pyridin-3-yl)benzenesulfonamide] were, in that order, 1 to 100 nM and < 0.5 nM.
Turning to `COc1ncc(-c2ccc3ncc4c(c3c2)C2(CC2)C(=O)N4C)cc1NS(=O)(=O)c1ccccc1` [Example 14, N-(2-Methoxy-5-(3′-methyl-2′-oxo-2′,3′-dihydrospiro [cyclopropane-1,1′-pyrrolo[2,3-c]quinolin]-8′-yl)pyridin-3-yl)benzenesulfonamide], the IC50 was 1 to 100 nM in experiment [1] (setting [4]) and < 0.5 nM in experiment [2] (ATP 20 μM).
With `CN1C(=O)C2(CC2)c2c1cnc1ccc(-c3cnc(Cl)c(NS(=O)(=O)c4ccccc4)c3)cc21` [Example 15, N-(2-Chloro-5-(3′-methyl-2′-oxo-2′,3′-dihydrospiro[cyclopropane-1,1′-pyrrolo[2,3-c]quinolin]-8′-yl)pyridin-3-yl)benzenesulfonamide], the figures for the IC50 in experiment [1] (setting [4]) and in experiment [2] (ATP 20 μM) were 1 to 100 nM and < 0.5 nM, respectively.
Take `COc1ncc(-c2ccc3ncc4c(c3c2)C2(CC2)C(=O)N4)cc1NS(=O)(=O)c1ccccc1` [Example 19, N-(2-Methoxy-5-(2′-oxo-2′,3′-dihydrospiro [cyclopropane-1,1′-pyrrolo[2,3-c]quinolin]-8′-yl)pyridin-3-yl) benzenesulfonamide]: the IC50 is 1 to 100 nM in experiment [1] (setting [4]) and < 0.5 nM in experiment [2] (ATP 20 μM).
The like results for `COc1ncc(-c2ccc3ncc4c(c3c2)C2(CC2)C(=O)N4CC#N)cc1NS(=O)(=O)c1ccccc1` [Example 21, N-(5-(3′-(Cyanomethyl)-2′-oxo-2′,3′-dihydrospiro[cyclopropane-1,1′-pyrrolo[2,3-c]quinolin]-8′-yl)-2-methoxypyridin-3-yl)benzenesulfonamide] were, in that order, 1 to 100 nM and < 0.5 nM.
The like results for `CN1C(=O)C2(CC2)c2c1cnc1ccc(-c3ccc4ncccc4c3)cc21` [Example 22, 3′-Methyl-8′-(quinolin-6-yl)spiro[cyclopropane-1,1′-pyrrolo[2,3-c]quinolin]-2′(3′-H)-one] were, in that order, 1 to 100 nM and 1 to 100 nM.

The record behind these values is patent US12187742B2 (XRAD Therapeutics, Inc., priority 2018, dated 2025).
